Reference: US20260144769A1, “4-PHENYLBUTYRATE RESTORED GABA UPTAKE AND REDUCED SEIZURES IN SLC6A1 VARIANT-MEDIATED DISORDERS” (Vanderbilt University, priority 2022, published 2026)

How the values were obtained:
SLC6A1^+/S295L mice = experiment: Video-monitoring synchronized EEG recordings, seizure activity; format: in vivo, mouse
Experimental: (§1) The working solution was stored at 4° C.
The surgery to implant the EEG head mount and the video-monitoring synchronized EEG recordings were conducted as described by Kristensen et al., Pharmcol. Rev. 63 (3): 585-640 (2011) and Cai et al., Exp. Neurol. 3:112973 (2019).
For recordings, the sampling rate was set at 400 Hz with a pre-amplifier gain of […]. […] EEG recordings were scored blindly by a skilled scorer using the Sirenia Seizure Pro software. A power analysis was performed using the theta frequency band of 5-7 Hz. The 5-7 Hz SWDs band was chosen because it is the mouse correlate of 2-4 Hz SWDs in humans. An average power was calculated using baseline recordings and applied to seizure analysis for treatment recordings. Seizures identified by the software were confirmed using video recordings of the period. The Racine scale was used for seizure identification (Stage 1: mouth/facial movements; Stage 2: head nodding; Stage 3: forelimb clonus; Stage 4: rearing; Stage 5: rearing and falling). The identified SWDs were then confirmed with video monitoring and compared across treated and non-treated recordings. The total seizure events over 48 hrs of EEG recordings were reported.
First, ˜2-month-old mice were implanted with EEG head mounts. After 5-7 days recovery, the mice were treated with a normal saline vehicle for 7 days, and then subject to video monitored EEG recording for 48 hrs. […]

GAT-1 S295L = target: T1, GAT-1 S295L (Rattus norvegicus, UniProt P23978, S295L); experiment: 3H GABA uptake, HEK293T, mutant cDNA alone ("homozygous"); format: cell-based; settings: PBA 2 mM, 24 hrs
T1 construct: The coding region of rGAT-1 was inserted into pEYFP-C1 (Clontech, Palo Alto, CA); expressed in transfected cells; host or cells: HEK293T cells (A5); astrocytes from corrected human iPSCs (A25)
Experimental: (§2) GABA uptake activity was measured by the high-throughput 3H radio-labeling GABA uptake on a liquid scintillator with QuantaSmart. […] HEK293T cells were transfected with the wildtype or the mutant GAT-1^YFP cDNAs alone for 48 hr. […] HEK293T cells were transfected with the wildtype GAT-1^YFP alone or in mixture of the wildtype or the mutant cDNAs for 48 hr. In the mixed condition, the ratio of the wildtype GAT-1 with pcDNA or the mutant cDNAs are 1:1 with the total cDNA amount of 0.5 μg. […] Both wt and the mutant were normalized to its own DMSO treated conditions. 966 stands for the wildtype treated with CI-966 (50 μM) while 711 stands for NNC-711 (35 μM). (N=4-7 different transfections. In FIG. 4A and FIG. 4B, *P<0.05, **P<0.01, ***p<0.001 vs. wt 0. In FIG. C and FIG. 4D, *P<0.05, **P<0.01, ***p<0.001 vs. its own DMSO treated. In FIG. 4C, ns stands for no significance. One-way analysis of variance (ANOVA) and Newman-Keuls test. Values were expressed as mean±S.E.M.
(§3) The plasmid cDNA encoding enhanced yellow fluorescent protein (EYFP)-tagged rat GAT-1 has been previously described. The coding region of rGAT-1 was inserted into pEYFP-C1 (Clontech, Palo Alto, CA). QuikChange Site-directed Mutagenesis kit was utilized to introduce the GAT-1 variants into a wildtype GAT-1 plasmid. The product was then amplified via polymerase chain reaction, transformed using DH5a competent cells, and plated. A clone was chosen and grown overnight. All the GAT-1 variants were confirmed by DNA sequencing. Both the wildtype and the variant cDNAs were prepared with Qiagen Maxiprep kit.
(§4) Human embryonic kidney cells were cultured as monolayers in 100 mm^2 dishes. Cells were cultured in Dulbecco's Modified Eagle's Medium supplemented with 10% FBS and 1% penicillin/streptomycin in 37° C. in 5% CO2/95% air. Cells were maintained in culture medium until appropriate confluency for experimentation.
(§5) Briefly, cells were cultured in […] dishes for 3 days before the GABA uptake experiment in DMEM with 10% fetal bovine serum and 1% penicillin/streptomycin. The cells were then transfected with equal amounts of the wildtype or the mutant GAT-1 cDNAs (1 μg) for each condition at 24 hrs or 48 hrs after plating. GABA uptake assay was carried out 48 hrs after transfection. The cells were incubated with preincubation solution for 15 min and then incubated with preincubation solution containing 1 μci/mL 3H GABA and 10 μM unlabeled GABA for 30 min at room temperature. After washing, the cells were lysed with 0.25 N NaOH for 1 hr. Glacial acetic acid was added, and lysates were then determined on a liquid scintillator with QuantaSmart. The flux of GABA (pmol/μg/min) was averaged with at least triplets for each condition at each transfection. The average counting was taken as n=1. The untransfected condition was taken as a baseline that was subtracted from both the wildtype and the mutant conditions. The pmol/μg/min in the mutant was then normalized to the wildtype from each experiment, which was arbitrarily taken as 100%. The protocols for GABA reuptake assay in cultured mouse astrocytes, neuron or iPSC derived cells were modified from the GABA uptake protocol on HEK 293T cells. GAT-1 inhibitors CL-966 and NNC-711 were applied each time to make sure the radioactive counts were specific.
as §1

GAT-1 A288V = target: T2, GAT-1 A288V (Rattus norvegicus, UniProt P23978, A288V); experiment: as above; format: cell-based; settings: PBA 2 mM, 24 hrs
T2 construct: The coding region of rGAT-1 was inserted into pEYFP-C1 (Clontech, Palo Alto, CA); expressed in transfected cells; host or cells: HEK293T cells (A4); astrocytes from corrected human iPSCs (A24)
Experimental: as §2, §3, §4, §5, §1

GAT-1 D410E = target: T3, GAT-1 D410E (Rattus norvegicus, UniProt P23978, D410E); experiment: as above; format: cell-based; settings: PBA 2 mM, 24 hrs
T3 construct: The coding region of rGAT-1 was inserted into pEYFP-C1 (Clontech, Palo Alto, CA); expressed in transfected cells; host or cells: HEK293T cells (A7); astrocytes from corrected human iPSCs (A27)
Experimental: as §2, §3, §4, §5, §1

GAT-1 W495X = target: T4, GAT-1 W495X (Rattus norvegicus, UniProt P23978); experiment: as above; format: cell-based; settings: PBA 2 mM, 24 hrs
T4 construct: expressed in transfected cells; host or cells: HEK293T cells
Experimental: as §2, §3, §4, §5, §1

GAT-1 G326R = target: T5, GAT-1 G326R (Rattus norvegicus, UniProt P23978, G362R); experiment: as above; format: cell-based; settings: PBA 2 mM, 24 hrs
T5 construct: The coding region of rGAT-1 was inserted into pEYFP-C1 (Clontech, Palo Alto, CA); expressed in transfected cells; host or cells: HEK293T cells
Experimental: as §2, §3, §4, §5, §1

Structure (SMILES): O=C(O)CCCc1ccccc1 [PBA, 4-phenylbutyric acid]
- total number of 5-7 Hz SWDs over 48 hrs EEG recordings (SLC6A1^+/S295L mice; PBA 100 mg/kg, ip, single dose daily, 7 days (vehicle 127.7±34.08)): 33.3±13.02
- reduction of seizure burden (SLC6A1^+/S295L mice; PBA treatment alone, 1 week): ~76%
- GABA uptake normalized to its own DMSO treated condition (GAT-1 S295L): 1.386±0.058
- GABA uptake normalized to its own DMSO treated condition (GAT-1 A288V): 1.22±0.063
- GABA uptake normalized to its own DMSO treated condition (GAT-1 D410E): 1.236±0.074
- GABA uptake normalized to its own DMSO treated condition (GAT-1 W495X): 1.323±0.054
- GABA uptake normalized to its own DMSO treated condition (GAT-1 G326R): 1.185±0.065
